PubChem BioAssay AID256 (DTP/NCI, 2004)
Values joined by “and” are separate entries in the source; they are usually repeats but may differ in a detail not shown here. Identical values can stand only once. Toxic doses and inconclusive results are not listed.

Test system: CD2F1 mice, L1210 leukemia ip, survival T/C
Experiment: NCI In Vivo Anticancer Drug Screen. Data for tumor model L1210 Leukemia (intraperitoneal) in CD2F1 (CDF1) mice
Conditions: endpoint: mean survival time, higher = longer survival
In short: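 Vehicle-treated tumor-bearing mice served as controls (C) for compound-treated mice (T). Reported figure is T divided by C.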

[1] = dose: 100.0 mg/kg/injection, schedule: Q01DX009 (ip), vehicle: saline with Tween-80
[2] = dose: 100.0 mg/kg/injection, schedule: Q04DX003 (ip), vehicle: saline with Tween-80
[3] = dose: 200.0 mg/kg/injection, schedule: Q01DX009 (ip), vehicle: saline with Tween-80
[4] = dose: 200.0 mg/kg/injection, schedule: Q04DX003 (ip), vehicle: saline with Tween-80
[5] = dose: 400.0 mg/kg/injection, schedule: Q04DX003 (ip), vehicle: saline with Tween-80
[6] = dose: 12.5 mg/kg/injection, schedule: Q01DX005 (ip), vehicle: water
[7] = dose: 25.0 mg/kg/injection, schedule: Q01DX005 (ip), vehicle: water
[8] = dose: 50.0 mg/kg/injection, schedule: Q01DX005 (ip), vehicle: water
[9] = dose: 100.0 mg/kg/injection, schedule: Q01DX005 (ip), vehicle: water
[10] = dose: 400.0 mg/kg/injection, schedule: Q01DX009 (ip), vehicle: saline with Tween-80
[11] = dose: 50.0 mg/kg/injection, schedule: Q04DX003 (ip), vehicle: saline
[12] = dose: 100.0 mg/kg/injection, schedule: Q04DX003 (ip), vehicle: saline
[13] = dose: 200.0 mg/kg/injection, schedule: Q04DX003 (ip), vehicle: saline
[14] = dose: 50.0 mg/kg/injection, schedule: Q01DX009 (ip), vehicle: saline with Tween-80
[15] = dose: 100.0 mg/kg/injection, schedule: Q01DX001 (ip), vehicle: saline
[16] = dose: 200.0 mg/kg/injection, schedule: Q01DX001 (ip), vehicle: saline
[17] = dose: 400.0 mg/kg/injection, schedule: Q01DX001 (ip), vehicle: saline
[18] = dose: 100.0 mg/kg/injection, schedule: Q04DX002 (ip), vehicle: saline with Tween-80
[19] = dose: 200.0 mg/kg/injection, schedule: Q04DX002 (ip), vehicle: saline with Tween-80

## Cc1ccc([N+](=O)[O-])c(N)n1
[1]
  T/C: 96 % of control
[2]
  T/C: 98 % of control
[3]
  T/C: 86 % of control
[4]
  T/C: 98 % of control
[5]
  T/C: 100 % of control

## N#Cc1cn(C2OC(CO)C(O)C2O)c2nc(NN)nc(N)c12 (configuration not stated)
dose: 1.56 mg/kg/injection, schedule: Q01DX005 (ip), vehicle: water
  T/C: 105 % of control
dose: 3.13 mg/kg/injection, schedule: Q01DX005 (ip), vehicle: water
  T/C: 105 % of control
dose: 6.25 mg/kg/injection, schedule: Q01DX005 (ip), vehicle: water
  T/C: 107 % of control
[6]
  T/C: 108 % of control
[7]
  T/C: 110 % of control
[8]
  T/C: 121 % of control
[9]
  T/C: 96 % of control

## C1CNC2NCCNC2N1 (configuration not stated)
[1]
  T/C: 101 % of control
dose: 100.0 mg/kg/injection, schedule: Q04DX003 (ip), vehicle: saline sonified
  T/C: 109 % of control
[3]
  T/C: 102 % of control
dose: 200.0 mg/kg/injection, schedule: Q04DX003 (ip), vehicle: saline sonified
  T/C: 103 % of control
[10]
  T/C: 108 % of control
dose: 400.0 mg/kg/injection, schedule: Q04DX003 (ip), vehicle: saline sonified
  T/C: 115 % of control

## C=C(C)C1CCC2(COS(=O)(=O)c3ccc(C)cc3)CCC3(C)C(CCC4C5(C)CCC(OC6CCCCO6)C(C)(C)C5CCC43C)C12 (configuration not stated)
dose: 25.0 mg/kg/injection, schedule: Q04DX002 (ip), vehicle: saline with Tween-80
  T/C: 103 % of control
dose: 50.0 mg/kg/injection, schedule: Q04DX002 (ip), vehicle: saline with Tween-80
  T/C: 92 % of control

## CC(C)(C)OOC(=O)Nc1ccc(Cl)cc1
dose: 25.0 mg/kg/injection, schedule: Q01DX001 (ip), vehicle: saline with Tween-80
  T/C: 88 % of control
dose: 50.0 mg/kg/injection, schedule: Q01DX001 (ip), vehicle: saline with Tween-80
  T/C: 92 % of control
dose: 100.0 mg/kg/injection, schedule: Q01DX001 (ip), vehicle: saline with Tween-80
  T/C: 88 % of control

## N#C[C@H](OC1OC(COC2OC(CO)C(O)C(O)C2O)C(O)C(O)C1O)c1ccccc1 (some centres not stated)
dose: 25.0 mg/kg/injection, schedule: Q01DX009 (ip), vehicle: saline
  T/C: 98 % of control
dose: 25.0 mg/kg/injection, schedule: Q01DX009 (ip), vehicle: water
  T/C: 96 % of control
dose: 50.0 mg/kg/injection, schedule: Q01DX009 (ip), vehicle: saline
  T/C: 97 % of control
dose: 50.0 mg/kg/injection, schedule: Q01DX009 (ip), vehicle: water
  T/C: 103 % of control
dose: 100.0 mg/kg/injection, schedule: Q01DX009 (ip), vehicle: saline
  T/C: 101 % of control
dose: 100.0 mg/kg/injection, schedule: Q01DX009 (ip), vehicle: water
  T/C: 96 % of control
dose: 200.0 mg/kg/injection, schedule: Q01DX009 (ip), vehicle: saline
  T/C: 104 % of control
dose: 200.0 mg/kg/injection, schedule: Q01DX009 (ip), vehicle: water
  T/C: 96 % of control
dose: 400.0 mg/kg/injection, schedule: Q01DX009 (ip), vehicle: saline
  T/C: 98 % of control
dose: 400.0 mg/kg/injection, schedule: Q01DX009 (ip), vehicle: water
  T/C: 105 % of control
dose: 800.0 mg/kg/injection, schedule: Q01DX009 (ip), vehicle: saline
  T/C: 107 % of control
dose: 800.0 mg/kg/injection, schedule: Q01DX009 (ip), vehicle: water
  T/C: 102 % of control

## Cn1c(=O)c2[nH]c(-c3ccc4c(c3)OCO4)nc2n(C)c1=O
[2]
  T/C: 89 % of control
[4]
  T/C: 92 % of control
[5]
  T/C: 88 % of control

## NC(=S)N/N=C\c1cccs1
[2]
  T/C: 97 % of control
[4]
  T/C: 100 % of control
[5]
  T/C: 96 % of control

## Cn1c(=O)c2c(ncn2CCCNCC(O)c2ccc(O)c(CO)c2)n(C)c1=O (configuration not stated)
[6]
  T/C: 96 % of control
[7]
  T/C: 96 % of control
[8]
  T/C: 100 % of control
[9]
  T/C: 96 % of control
dose: 200.0 mg/kg/injection, schedule: Q01DX005 (ip), vehicle: water
  T/C: 98 % of control

## CN(CCl)S(=O)(=O)c1ccccc1
[1]
  T/C: 100 % of control
[2]
  T/C: 112 % of control
[3]
  T/C: 104 % of control
[4]
  T/C: 101 % of control
[10]
  T/C: 102 % of control
[5]
  T/C: 100 % of control

## O=C(O)/C=C/SCCC(=O)O
[2]
  T/C: 93 % of control and 101 % of control
[4]
  T/C: 101 % of control and 94 % of control

## O=C(/C=C/c1ccccc1)N1CCOCC1
[11]
  T/C: 102 % of control
[12]
  T/C: 96 % of control
[13]
  T/C: 100 % of control

## CC(C)(C)CC(C)(C)c1ccc(OCCOS(=O)(=O)c2cccc([N+](=O)[O-])c2)cc1
[14]
  T/C: 96 % of control
[1]
  T/C: 89 % of control
[3]
  T/C: 94 % of control

## Cc1c(/C=N/NC=O)[nH]c(=O)[nH]c1=O
[15]
  T/C: 89 % of control
[16]
  T/C: 91 % of control
[17]
  T/C: 86 % of control

## CC(=O)Nc1ccc(NC(=O)Nc2ccc(C)c([N+](=O)[O-])c2)cc1
[14]
  T/C: 98 % of control
[1]
  T/C: 98 % of control
[3]
  T/C: 98 % of control

## COC(=O)CSc1nn(C2OC(COC(=O)c3ccccc3)C(OC(=O)c3ccccc3)C2OC(=O)c2ccccc2)c(=O)[nH]c1=O (configuration not stated)
dose: 12.5 mg/kg/injection, schedule: Q01DX005 (ip), vehicle: distilled water + Tween-80
  T/C: 92 % of control
dose: 25.0 mg/kg/injection, schedule: Q01DX005 (ip), vehicle: distilled water + Tween-80
  T/C: 101 % of control
dose: 50.0 mg/kg/injection, schedule: Q01DX005 (ip), vehicle: distilled water + Tween-80
  T/C: 93 % of control
dose: 100.0 mg/kg/injection, schedule: Q01DX005 (ip), vehicle: distilled water + Tween-80
  T/C: 90 % of control
dose: 200.0 mg/kg/injection, schedule: Q01DX005 (ip), vehicle: distilled water + Tween-80
  T/C: 88 % of control

## CC1=C(N=[N+]=[N-])C(=O)c2ccccc2C1=O
[18]
  T/C: 91 % of control
[19]
  T/C: 100 % of control

## CCOC(=O)C(O)(CC)CCC(C)C (configuration not stated)
[2]
  T/C: 105 % of control
[4]
  T/C: 86 % of control

## O=C(CCl)Cc1ccccc1
[11]
  T/C: 98 % of control
[15]
  T/C: 104 % of control
[12]
  T/C: 92 % of control
[16]
  T/C: 103 % of control
[13]
  T/C: 101 % of control

## O=C1CN(Cl)C(=O)CN1Cl
dose: 37.5 mg/kg/injection, schedule: Q04DX002 (ip), vehicle: saline with Tween-80
  T/C: 98 % of control
dose: 75.0 mg/kg/injection, schedule: Q04DX002 (ip), vehicle: saline with Tween-80
  T/C: 98 % of control
dose: 150.0 mg/kg/injection, schedule: Q04DX002 (ip), vehicle: saline with Tween-80
  T/C: 102 % of control

## C=CCCCCC/C=C/CCCCCC
[15]
  T/C: 96 % of control
[12]
  T/C: 108 % of control
[16]
  T/C: 98 % of control
[13]
  T/C: 103 % of control
[17]
  T/C: 104 % of control
dose: 400.0 mg/kg/injection, schedule: Q04DX003 (ip), vehicle: saline
  T/C: 106 % of control

## CCS(=O)(=O)Nc1ccc(Nc2c3ccccc3nc3ccccc23)c(OC)c1
dose: 5.0 mg/kg/injection, schedule: Q01DX009 (ip), vehicle: saline
  T/C: 156 % of control

## Cc1cc(C)c(C)c(Br)c1
dose: 100.0 mg/kg/injection, schedule: Q01DX009 (ip), vehicle: saline sonified
  T/C: 95 % of control
[2]
  T/C: 100 % of control
[5]
  T/C: 102 % of control

## c1ccc2c(-c3nnn4ccccc34)cccc2c1
[15]
  T/C: 89 % of control
[16]
  T/C: 106 % of control
[17]
  T/C: 97 % of control

## N#Cc1ncn(C2OC(CO)C(O)C2O)c1N (configuration not stated)
[18]
  T/C: 102 % of control
[19]
  T/C: 105 % of control
dose: 400.0 mg/kg/injection, schedule: Q04DX002 (ip), vehicle: saline with Tween-80
  T/C: 109 % of control

## COC(=O)NC(S(=O)(=O)O)S(=O)(=O)O
[15]
  T/C: 108 % of control
[16]
  T/C: 101 % of control
[17]
  T/C: 108 % of control
